The experiment deals with canine genes. Description: Canine cell culture genomic assay: modification of gene expression in vitro (Affymetrix canine gene chips). Format: cell-based. Also on record: key: those genes that are modified by capsaicin are identified by an asterix (*). As to conditions: canine cell lines CCL34, CRL1430, CCL183, CTAC; up or down regulation. The protocol: We have compiled a database of substances known to modify the expression of various canine genes in canine cells in vitro according to the following methods provided below and previously described (see, e.g., U.S. 2006-0200320 Al).
Test substances are assayed in two concentrations using the following canine cell lines: CCL34 (kidney), CRL1430 (thymus), CCL183 (bone) (all obtained from the American Tissue Culture Collection) and CTAC (thyroid) (see, Measurement of NK Activity in Effector Cells Purified from Canine Peripheral Lymphocytes, Veterinary Immunology and Immunopathology, 35 (1993) 239-25 1). Briefly, cells are cultured in OptiCell chambers according to conventional methods and the next day treated with test substance. The solvent used at the higher of the two concentrations is used as a control. The following day the cells are harvested for genomic assay.
RNA is isolated from the canine cultures using commercially available methods, e.g., an RNAeasy Mini Kit (Qiagen, Valencia, Calif.) according to the manufacturers instructions and conventional methods. The quality of the isolated RNA is analyzed using a RNA 6000 Nano Assay and an Agilent 2100 Bioanalyzer. The procedure is performed according to the manufacturer's instructions provided in the Reagent Kit Guide (see Edition November 2003, by Agilent Technologies) with the following modifications: during gel preparation, rather than separating the filtered gel into aliquots of 65 uL each, the stock filtered gel is kept in the original microcentrifuge tube and the 65 uL is aliquoted as needed; while loading the RNA 6000 Nano Marker, 1 uL of RNase-free water (instead of RNA 6000 Nano Marker) is added to each sample well that will not contain sample. When loading the RNA 6000 Ladder and samples, heat denature the samples and RNA 6000 Ladder for an additional 30 seconds (total of 2.5 minutes) at 71° C.; with regard to “Starting the Chip Run”, choose the “Eukaryote Total RNA Nano” option from the assay menu.
Gene expression is measured for the treatment cell lines and controls using Affymetrix canine gene chips Canine-1 and Canine-2 according to the manufacturer's instructions. Gene expression data is determined to be either “up” or “down”-regulated for any given treatment. The decision on whether a gene is “up” or “down” is based on the fold change, which is calculated as treatment intensity/control intensity for each individual probe. […] Also, a probe is considered significant for further scrutiny if it is called as “present” in only one of the conditions being compared (treatment or control) and is “absent” or “marginal” in the other and the fold change is significant according to the software used. Probes that appear to be regulated in opposite directions in the two treatments are excluded from further analysis. The raw data is analyzed using GeneSpring version 7.0 (GS) software (Agilent Corporation) and validated using the R-Bioconductor (RB) freeware. Both software packages are used to compute probe intensities from the CEL files generated by the Affymetrix Instrument. The Present/Absent/Marginal calls per probe and P-values are computed using the R-Bioconductor and GeneSpring software separately.
Two schemes are used for data analysis. First: “across cell lines” and “within individual cell lines.” In the first scheme, genes are selected for scoring provided they are found to be significant and common across all cell-lines. The “across cell lines” yields the highest confidence data with minimum noise and may provide the best possible clues as to which genes are affected by individual ingredients. In the second scheme, only those genes that show a significant fold change in the two treatments according to both software packages within an individual cell lines are scored.
Table 1A provided hereinabove is a list of canine genes the expression of which is modified in vitro in the presence of various compounds. […]

Marks after values point to notes of the source that are not given here.

On to `COc1cc(CNC(=O)CCCCC=CC(C)C)ccc1O` [capsaicin, 8-methyl-N-vanillyl-6-nonenamide], for which the “expression of Complement component 4 modified in canine cells in vitro” value is recorded as “Complement component 4 *”, the “expression of Fragilis/homolog to rat interferon-inducible protein modified in canine cells in vitro” value was “protein*”, the “expression of Homolog to Homo sapiens interferon-induced 35-kDa protein modified in canine cells in vitro” value was “kDa protein*” and the “expression of L-Plastin/lymphocyte cytosolic protein 1 modified in canine cells in vitro” value is “L-Plastin/lymphocyte cytosolic protein 1*”. For the same compound, the “expression of α Cytochrome b558/cytochrome b-245 modified in canine cells in vitro” value is recorded as “^α Cytochrome b558/cytochrome b-245 *” and the “expression of α Tubulin, 1 modified in canine cells in vitro” value is “^α Tubulin, 1 *”.

The record behind these values is patent publication US20100048723A1, “Compositions and Methods for Preventing or Treating Obesity In Animals” (priority 2007, published 2010).
